This note sets out measurements from US20260167659A1, “STING AGONISTS” (LIGACHEM BIOSCIENCES INC., priority 2022, published 2026).

As usually defined, the EC50 is the midpoint of the concentration-response curve. A word on the CC50: it is the concentration at which the toxic effect on the cells reaches its halfway point.

The target in one data set is T1, hSTING-WT (R232) (Homo sapiens, UniProt Q86WV6, H232R).
T1 construct: host or cells: THP1-Dual cells (human monocytes) with knocked-in hSTING R232
T1 sequence (Q86WV6 whole entry H232R): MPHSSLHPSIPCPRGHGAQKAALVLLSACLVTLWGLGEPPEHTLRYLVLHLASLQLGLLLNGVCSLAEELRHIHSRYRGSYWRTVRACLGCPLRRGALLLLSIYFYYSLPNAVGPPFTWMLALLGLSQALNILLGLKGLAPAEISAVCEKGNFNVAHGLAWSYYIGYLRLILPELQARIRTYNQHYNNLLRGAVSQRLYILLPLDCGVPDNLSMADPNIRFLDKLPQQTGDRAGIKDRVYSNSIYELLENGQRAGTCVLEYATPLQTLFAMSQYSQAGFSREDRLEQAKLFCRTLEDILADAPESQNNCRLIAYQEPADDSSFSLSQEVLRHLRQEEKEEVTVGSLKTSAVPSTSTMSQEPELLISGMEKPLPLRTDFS
As to the kind of experiment: STING activation, THP1-Dual IRF3 reporter assay, hSTING-R232 cells. Type of data set: cell-based. The settings on record: IRF3 luciferase reporter, 24 hours, read-out: STING activity using hSTING-R232 cells EC50. The method in brief:
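THP1-Dual monocytes carrying knocked-in hSTING-WT (R232), H232 or HAQ variants were seeded at 9.0×10^4 cells per well and treated next day with serially diluted compounds for 24 h. Secreted IRF-Lucia luciferase in the supernatant was read by luminescence, and EC50 values were fitted with a 4-parameter model.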

A further data set has as its target T2, human STING (Homo sapiens, UniProt Q86WV6, H232R).
T2 construct: purchased Cisbio 64BDSTGPEG
Briefly: Direct STING binding, HUMAN STING WT BINDING KIT (Cisbio). The conditions noted are these: direct binding to human STING WT protein in vitro; read-out: Binding potency EC50. The text has this:
Additionally, for analysis of direct binding potency of STING agonist compounds described herein to human STING, HUMAN STING WT BINDING KIT (Cisbio, #64BDSTGPEG) was used according to the manufacture's instruction.

A short description of data set [1]: Normal cell cytotoxicity in CD34+ HSC, CellTiter-Glo. The class given is cell-based. The settings on record: human, CD34+ hematopoietic stem cells (HSCs), read-out: In vitro cell cytotoxicity in CD34+ HSC CC50. Here is the method:
The CD34^+ hematopoietic stem cells (HSCs) were purchased from […]™ (#70002.3). The cells (2×10^4 cells per well) were cultured in StemSpan™ SFEM II medium supplemented with StemSpan™ CD34+ Expansion Supplement (#02691) in a 6-well plate at 37° C. for 7 days. On day 3 or 4, an equal volume of fresh complete medium was added into the cell culture. On day 7, the cells (4×10^4 cells per well) were seeded in a 96-well white plate and rested for 24 hours in the same condition.
After 72 hours, the cell viability was measured using CellTiter-Glo Luminescent Cell Viability Assay (Promega, #G7573) according to the manufacture's instruction. The signal was detected using an EnVision Xcite multilabel reader and data were analyzed using GraphPad Prism 8 software.

The next data set has as its system Human THP-1 cells. Briefly: THP-1 activation, CD86 and HLA-DR by flow cytometry. The class given is cell-based. The settings on record: THP-1, 5-fold serial dilution from 1 μM, 48 hours. How it is done:
To test the effect of STING agonist compounds described herein in the activation of innate and adaptive immune cells, flow cytometry (FACS) was performed. Human THP-1 cells (Korean Cell Line Bank, #40202) and PBMCs were seeded at 1.2×10^5 cells per well in a round-bottomed 96-well plate in RPMI 1640 medium (Gibco, #22400097) supplemented with 10% heat-inactivated FBS and 1× Antibiotic-Antimycotic (Gibco, #15240062) and rested for 24 hours at 37° C. The cells were stimulated with the STING agonist compounds as described; For THP-1 stimulation, the cells were treated with the STING agonist compound (Compound 313) in a 5-fold serial dilution from 1 μM for 48 hours. The induction of cell surface activation markers, CD86 (co-stimulatory molecule) and HLA-DR (MHC-class II), was measured by flow cytometry. […] For flow cytometry analysis, the stimulated cells were centrifuged at 300 g for 5 minutes at 4° C., and then resuspended in FACS buffer (2% FBS, 2 mM EDTA in PBS). […] Subsequently, the cells were stained with fluorescence-conjugated antibodies against CD8, CD3, CD56, and CD69 for CD8 T and NK cells activation and against CD86 and MHC-II for THP-1 naïve cells activation for 40 minutes at 4° C. After washing three times with FACS buffer, the cells were resuspended in FACS buffer and analyzed by FACSlyric (BD bioscience). The data were analyzed with Flowjo 9.0 software (BD bioscience).
In general terms: In flow cytometry, cells or beads pass a laser one at a time.

The next data set addresses T3, hSTING HAQ variant (Homo sapiens, UniProt Q86WV6, G230A/H232R/R293Q/R71H).
T3 construct: host or cells: THP1-Dual cells (human monocytes)
Briefly: STING activation, THP1-Dual IRF3 reporter assay, hSTING-HAQ cells. The class given is cell-based. The settings on record: IRF3 luciferase reporter, 24 hours, read-out: STING activity using hSTING-HAQ cells, HAQ EC50. Here is the method:
To assess potency of STING agonist compounds described herein, THP1-Dual™ Cells (NF—KB-SEAP and IRF-Lucia luciferase reporter monocytes, InvivoGen) were used. The reporter cells were knocked-in either of hSTING-WT (R232, #thpd-r232), HAQ variant (#thpd-nfis), or H232 variant (#thpd-h232). All cells were cultured at 37° C. in a humidified incubator at 5% CO2 and maintained in RPMI 1640 medium (Gibco, #22400097) supplemented with 10% heat-inactivated FBS and 1×Pen-Strep (Gibco, #15140122). To measure STING agonist-mediated IRF3 activity, the cells (9.0×10^4 cells per well) were seeded in a flat-bottomed 96-well plate. The next day, the cells were treated with compounds in a serial dilution for 24 hours. Subsequently, 20 μL of the cell culture supernatant and 50 μL of the QUANTI-Luc™ reagent (InvivoGen, #rep-qlc) were mixed in a 96-well white plate and then, luciferase activity was measured using an EnVision Xcite multilabel reader. The data were analyzed using Prism8 software (4-parameter).
The potency of STING agonist compounds was evaluated by the activation of Type I Interferon pathway using THP-1 IRF3 reporter assay.

T2 sequence (Q86WV6 whole entry H232R): as above
T3 sequence (Q86WV6 whole entry R71H/G230A/H232R/R293Q): as the sequence (Q86WV6 whole entry H232R) above, with R71H, G230A, R293Q counted along it

In the case of `CCn1nc(C)cc1C(=O)Nc1nc2cc(C(N)=O)cc(OC/C=C/Cn3cc(NC(=O)OCc4ccc(O[C@@H]5O[C@H](C(=O)O)[C@@H](O)[C@H](O)[C@H]5O)c(C(=O)NCCOCCOCCN(C)C)c4)cn3)c2n1C/C=C/Cn1c(NC(=O)c2cc(C)nn2CC)nc2cc(C(N)=O)cc(OCCCC(=O)O)c21` [Compound 313], the values for the EC50 at hSTING-WT (R232), on human STING and at hSTING HAQ variant were 68.3 nM, 0.08 nM and 115 nM, respectively. Also, the CC50 at 72 h in data set [1] came to 44.5 nM. Further, the “co-stimulatory molecule CD86 on cell surface” value with Human THP-1 cells (FIG. 3A) is reported as “Up-regulation”. Also, in the data set with Human THP-1 cells (FIG. 3B), the “MHC class II molecule HLA-DR on cell surface” value is listed as “Up-regulation”.
